Source: ChEMBL document CHEMBL4507268 (2021)

Columns and labels:
[1] = biological target: T1, Muscle, skeletal receptor tyrosine-protein kinase (Homo sapiens) (UniProt O15146); conditions: Compound concentration 1000.0 nM
T1 sequence (whole entry): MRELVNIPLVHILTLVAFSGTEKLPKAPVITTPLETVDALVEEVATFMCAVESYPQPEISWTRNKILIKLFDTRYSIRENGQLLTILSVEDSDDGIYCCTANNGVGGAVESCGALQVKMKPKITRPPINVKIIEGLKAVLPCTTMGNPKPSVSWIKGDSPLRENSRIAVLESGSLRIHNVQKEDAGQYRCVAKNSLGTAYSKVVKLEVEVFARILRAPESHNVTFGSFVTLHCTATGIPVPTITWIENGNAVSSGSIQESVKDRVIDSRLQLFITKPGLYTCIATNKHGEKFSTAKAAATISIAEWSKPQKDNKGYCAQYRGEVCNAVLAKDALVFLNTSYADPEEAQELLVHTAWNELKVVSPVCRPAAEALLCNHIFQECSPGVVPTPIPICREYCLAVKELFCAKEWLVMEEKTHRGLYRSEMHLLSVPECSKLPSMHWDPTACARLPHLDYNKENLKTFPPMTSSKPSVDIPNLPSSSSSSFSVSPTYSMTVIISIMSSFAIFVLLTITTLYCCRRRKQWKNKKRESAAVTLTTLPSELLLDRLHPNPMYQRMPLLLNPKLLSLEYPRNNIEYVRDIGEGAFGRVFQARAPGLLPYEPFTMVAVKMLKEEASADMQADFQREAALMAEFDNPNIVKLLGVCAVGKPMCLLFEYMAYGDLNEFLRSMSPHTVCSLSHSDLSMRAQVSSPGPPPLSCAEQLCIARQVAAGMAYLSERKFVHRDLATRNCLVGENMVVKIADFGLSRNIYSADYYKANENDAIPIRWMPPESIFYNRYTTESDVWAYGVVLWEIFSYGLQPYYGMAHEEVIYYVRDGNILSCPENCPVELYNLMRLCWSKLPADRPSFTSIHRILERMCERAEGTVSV

[2] = biological target: Ephrin type-A receptor 4 (Homo sapiens) (UniProt P54764); conditions: Compound concentration 1000.0 nM
[3] = biological target: Death-associated protein kinase 3 (Homo sapiens) (UniProt O43293); conditions: Compound concentration 1000.0 nM
[4] = biological target: Histamine H2 receptor (Homo sapiens) (UniProt P25021); conditions: Compound concentration 10.0 uM
[5] = biological target: Alpha-2A adrenergic receptor (Homo sapiens) (UniProt P08913); conditions: Compound concentration 10.0 uM
[6] = biological target: Ribosomal protein S6 kinase beta-1 (Homo sapiens) (UniProt P23443); conditions: Compound concentration 1000.0 nM
[7] = biological target: T2, Serine/threonine-protein kinase tousled-like 1 (Homo sapiens) (UniProt Q9UKI8); conditions: Compound concentration 1000.0 nM
T2 sequence (whole entry): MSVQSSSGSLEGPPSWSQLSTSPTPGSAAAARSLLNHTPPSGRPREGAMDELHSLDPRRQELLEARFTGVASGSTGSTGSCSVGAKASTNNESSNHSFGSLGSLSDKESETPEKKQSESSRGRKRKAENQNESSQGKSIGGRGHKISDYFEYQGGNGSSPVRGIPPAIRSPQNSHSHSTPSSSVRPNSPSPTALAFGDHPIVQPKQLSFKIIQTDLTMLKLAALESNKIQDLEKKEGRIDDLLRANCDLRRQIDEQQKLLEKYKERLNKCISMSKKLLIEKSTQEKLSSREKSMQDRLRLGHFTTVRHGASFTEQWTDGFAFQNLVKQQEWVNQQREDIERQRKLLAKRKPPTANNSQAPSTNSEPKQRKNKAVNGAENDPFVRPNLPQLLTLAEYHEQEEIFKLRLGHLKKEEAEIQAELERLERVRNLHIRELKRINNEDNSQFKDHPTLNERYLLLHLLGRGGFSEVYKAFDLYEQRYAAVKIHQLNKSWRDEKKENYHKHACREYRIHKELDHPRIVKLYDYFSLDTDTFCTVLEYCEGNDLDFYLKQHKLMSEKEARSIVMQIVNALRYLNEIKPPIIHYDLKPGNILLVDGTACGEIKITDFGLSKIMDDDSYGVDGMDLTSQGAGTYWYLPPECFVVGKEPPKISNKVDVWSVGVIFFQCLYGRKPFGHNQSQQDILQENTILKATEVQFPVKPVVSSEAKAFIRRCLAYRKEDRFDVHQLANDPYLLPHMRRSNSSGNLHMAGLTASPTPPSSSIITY

[8] = biological target: Proto-oncogene tyrosine-protein kinase ROS (Homo sapiens) (UniProt P08922); conditions: Compound concentration 1000.0 nM
[9] = biological target: T3, Serine/threonine-protein kinase DCLK2 (Homo sapiens) (UniProt Q8N568); conditions: Compound concentration 1000.0 nM
T3 sequence (whole entry): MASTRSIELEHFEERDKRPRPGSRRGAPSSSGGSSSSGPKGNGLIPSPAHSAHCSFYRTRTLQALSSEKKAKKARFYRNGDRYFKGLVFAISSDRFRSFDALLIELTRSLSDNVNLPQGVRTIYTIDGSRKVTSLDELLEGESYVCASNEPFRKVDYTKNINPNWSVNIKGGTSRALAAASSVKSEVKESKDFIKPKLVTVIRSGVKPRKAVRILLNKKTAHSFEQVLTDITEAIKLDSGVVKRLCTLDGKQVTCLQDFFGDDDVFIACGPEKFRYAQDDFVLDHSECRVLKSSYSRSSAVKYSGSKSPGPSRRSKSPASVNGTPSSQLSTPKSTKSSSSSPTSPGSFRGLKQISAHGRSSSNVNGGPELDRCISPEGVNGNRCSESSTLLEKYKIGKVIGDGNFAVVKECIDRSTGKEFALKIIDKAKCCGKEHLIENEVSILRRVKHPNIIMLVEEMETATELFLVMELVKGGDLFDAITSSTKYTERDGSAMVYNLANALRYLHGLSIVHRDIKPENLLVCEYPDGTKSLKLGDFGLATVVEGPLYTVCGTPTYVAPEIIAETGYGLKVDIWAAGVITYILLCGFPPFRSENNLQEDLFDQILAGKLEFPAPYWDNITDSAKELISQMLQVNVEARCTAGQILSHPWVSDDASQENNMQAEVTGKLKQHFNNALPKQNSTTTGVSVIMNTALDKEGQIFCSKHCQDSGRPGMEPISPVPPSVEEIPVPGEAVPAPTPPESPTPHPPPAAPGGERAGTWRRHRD

[10] = biological target: Kappa-type opioid receptor (Homo sapiens) (UniProt P41145); conditions: Compound concentration 10.0 uM
[11] = biological target: Serine/threonine-protein kinase pim-2 (Homo sapiens) (UniProt Q9P1W9); conditions: Compound concentration 1000.0 nM
[12] = biological target: Non-receptor tyrosine-protein kinase TYK2 (Homo sapiens) (UniProt P29597); conditions: Compound concentration 1000.0 nM
[13] = biological target: Mitogen-activated protein kinase 15 (Homo sapiens) (UniProt Q8TD08); conditions: Compound concentration 1000.0 nM

Sequence of Non-receptor tyrosine-protein kinase TYK2 (Homo sapiens) (P29597 whole entry): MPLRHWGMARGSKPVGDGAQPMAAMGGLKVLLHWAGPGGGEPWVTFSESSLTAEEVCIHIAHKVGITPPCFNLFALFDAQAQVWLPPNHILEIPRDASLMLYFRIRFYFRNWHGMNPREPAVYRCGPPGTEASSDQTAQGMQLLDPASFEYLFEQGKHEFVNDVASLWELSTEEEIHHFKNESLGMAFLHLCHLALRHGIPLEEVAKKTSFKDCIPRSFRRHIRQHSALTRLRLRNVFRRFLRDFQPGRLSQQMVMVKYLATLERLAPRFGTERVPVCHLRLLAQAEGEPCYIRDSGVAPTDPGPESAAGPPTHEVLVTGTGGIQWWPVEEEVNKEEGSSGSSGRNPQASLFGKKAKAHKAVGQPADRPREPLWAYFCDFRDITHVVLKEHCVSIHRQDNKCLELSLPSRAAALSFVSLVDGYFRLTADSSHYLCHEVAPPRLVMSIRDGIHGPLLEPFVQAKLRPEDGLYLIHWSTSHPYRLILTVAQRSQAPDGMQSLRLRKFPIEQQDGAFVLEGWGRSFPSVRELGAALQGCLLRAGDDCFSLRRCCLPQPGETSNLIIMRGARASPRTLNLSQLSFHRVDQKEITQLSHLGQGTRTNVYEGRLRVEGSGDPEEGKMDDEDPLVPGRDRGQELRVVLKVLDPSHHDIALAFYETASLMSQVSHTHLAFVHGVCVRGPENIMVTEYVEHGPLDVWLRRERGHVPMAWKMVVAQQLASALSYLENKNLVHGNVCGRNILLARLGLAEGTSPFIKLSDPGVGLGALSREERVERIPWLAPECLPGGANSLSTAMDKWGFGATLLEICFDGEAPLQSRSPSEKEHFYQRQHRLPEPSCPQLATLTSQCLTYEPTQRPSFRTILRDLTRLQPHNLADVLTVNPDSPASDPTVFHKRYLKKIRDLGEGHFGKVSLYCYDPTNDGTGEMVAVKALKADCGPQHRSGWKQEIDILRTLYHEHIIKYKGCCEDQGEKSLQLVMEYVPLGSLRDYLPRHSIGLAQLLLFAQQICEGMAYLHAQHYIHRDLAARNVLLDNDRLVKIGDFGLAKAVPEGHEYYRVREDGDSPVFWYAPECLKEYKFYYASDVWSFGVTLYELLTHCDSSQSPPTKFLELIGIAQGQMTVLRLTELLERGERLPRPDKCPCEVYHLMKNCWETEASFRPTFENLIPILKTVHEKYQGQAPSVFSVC
Sequence of Proto-oncogene tyrosine-protein kinase ROS (Homo sapiens) (P08922 whole entry): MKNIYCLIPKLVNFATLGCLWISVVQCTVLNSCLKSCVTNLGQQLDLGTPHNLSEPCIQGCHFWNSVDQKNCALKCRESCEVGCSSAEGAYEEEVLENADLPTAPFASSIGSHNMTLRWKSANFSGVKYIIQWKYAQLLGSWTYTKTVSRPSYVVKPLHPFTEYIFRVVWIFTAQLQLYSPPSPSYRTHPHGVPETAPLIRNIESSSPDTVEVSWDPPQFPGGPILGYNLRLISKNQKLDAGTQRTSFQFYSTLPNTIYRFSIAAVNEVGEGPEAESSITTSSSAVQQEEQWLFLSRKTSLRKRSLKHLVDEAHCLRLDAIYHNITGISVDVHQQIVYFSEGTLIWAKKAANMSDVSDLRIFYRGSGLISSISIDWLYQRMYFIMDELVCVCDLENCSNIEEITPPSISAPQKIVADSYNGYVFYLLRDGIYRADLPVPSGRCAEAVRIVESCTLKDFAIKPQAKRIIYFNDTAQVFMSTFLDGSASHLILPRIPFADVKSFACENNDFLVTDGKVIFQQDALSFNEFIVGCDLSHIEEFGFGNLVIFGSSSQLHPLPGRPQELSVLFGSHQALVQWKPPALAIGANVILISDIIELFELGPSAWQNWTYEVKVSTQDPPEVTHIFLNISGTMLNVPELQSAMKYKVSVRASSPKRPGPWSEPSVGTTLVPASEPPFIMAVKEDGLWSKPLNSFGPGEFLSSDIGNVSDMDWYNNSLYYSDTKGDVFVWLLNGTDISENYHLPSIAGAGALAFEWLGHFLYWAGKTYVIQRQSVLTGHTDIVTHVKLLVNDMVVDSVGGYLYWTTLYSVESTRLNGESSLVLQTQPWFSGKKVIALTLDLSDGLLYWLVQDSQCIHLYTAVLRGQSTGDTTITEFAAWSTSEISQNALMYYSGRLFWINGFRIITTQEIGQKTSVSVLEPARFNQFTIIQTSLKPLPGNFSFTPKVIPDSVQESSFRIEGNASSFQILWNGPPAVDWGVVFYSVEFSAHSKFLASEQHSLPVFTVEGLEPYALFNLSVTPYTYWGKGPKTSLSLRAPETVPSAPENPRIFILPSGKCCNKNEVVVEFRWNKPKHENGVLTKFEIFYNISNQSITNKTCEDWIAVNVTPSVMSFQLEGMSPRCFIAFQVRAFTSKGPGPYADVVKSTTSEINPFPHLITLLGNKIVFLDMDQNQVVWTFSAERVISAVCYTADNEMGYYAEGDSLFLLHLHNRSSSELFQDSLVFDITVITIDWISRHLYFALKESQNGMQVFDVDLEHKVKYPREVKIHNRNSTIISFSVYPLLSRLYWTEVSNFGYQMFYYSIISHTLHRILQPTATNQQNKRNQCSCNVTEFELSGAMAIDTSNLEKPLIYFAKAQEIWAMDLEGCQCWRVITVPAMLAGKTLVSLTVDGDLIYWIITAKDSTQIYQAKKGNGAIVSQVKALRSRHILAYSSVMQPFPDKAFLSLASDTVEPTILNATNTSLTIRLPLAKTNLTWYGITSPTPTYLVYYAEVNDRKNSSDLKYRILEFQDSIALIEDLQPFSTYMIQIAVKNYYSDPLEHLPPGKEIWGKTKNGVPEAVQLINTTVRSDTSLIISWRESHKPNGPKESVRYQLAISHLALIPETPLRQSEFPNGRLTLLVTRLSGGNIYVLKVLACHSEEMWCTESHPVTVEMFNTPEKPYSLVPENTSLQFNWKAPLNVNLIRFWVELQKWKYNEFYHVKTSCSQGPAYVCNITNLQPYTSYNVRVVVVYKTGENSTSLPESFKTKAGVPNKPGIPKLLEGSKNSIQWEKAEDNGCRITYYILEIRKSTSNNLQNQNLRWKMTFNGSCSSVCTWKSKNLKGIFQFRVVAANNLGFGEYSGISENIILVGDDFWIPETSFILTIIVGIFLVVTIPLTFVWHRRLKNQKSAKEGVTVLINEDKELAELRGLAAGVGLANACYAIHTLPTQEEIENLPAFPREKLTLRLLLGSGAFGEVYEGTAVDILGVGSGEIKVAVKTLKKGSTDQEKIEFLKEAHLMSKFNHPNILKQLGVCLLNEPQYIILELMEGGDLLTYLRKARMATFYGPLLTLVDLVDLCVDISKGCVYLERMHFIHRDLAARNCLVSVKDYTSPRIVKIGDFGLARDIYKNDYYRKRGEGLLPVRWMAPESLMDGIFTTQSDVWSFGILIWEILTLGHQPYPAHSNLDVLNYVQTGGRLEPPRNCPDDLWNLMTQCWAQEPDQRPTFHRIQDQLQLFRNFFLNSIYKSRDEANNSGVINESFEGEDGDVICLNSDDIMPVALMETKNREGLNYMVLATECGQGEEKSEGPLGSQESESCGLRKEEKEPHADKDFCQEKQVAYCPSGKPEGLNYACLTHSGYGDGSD
Sequence of Ribosomal protein S6 kinase beta-1 (Homo sapiens) (P23443 whole entry, looked up): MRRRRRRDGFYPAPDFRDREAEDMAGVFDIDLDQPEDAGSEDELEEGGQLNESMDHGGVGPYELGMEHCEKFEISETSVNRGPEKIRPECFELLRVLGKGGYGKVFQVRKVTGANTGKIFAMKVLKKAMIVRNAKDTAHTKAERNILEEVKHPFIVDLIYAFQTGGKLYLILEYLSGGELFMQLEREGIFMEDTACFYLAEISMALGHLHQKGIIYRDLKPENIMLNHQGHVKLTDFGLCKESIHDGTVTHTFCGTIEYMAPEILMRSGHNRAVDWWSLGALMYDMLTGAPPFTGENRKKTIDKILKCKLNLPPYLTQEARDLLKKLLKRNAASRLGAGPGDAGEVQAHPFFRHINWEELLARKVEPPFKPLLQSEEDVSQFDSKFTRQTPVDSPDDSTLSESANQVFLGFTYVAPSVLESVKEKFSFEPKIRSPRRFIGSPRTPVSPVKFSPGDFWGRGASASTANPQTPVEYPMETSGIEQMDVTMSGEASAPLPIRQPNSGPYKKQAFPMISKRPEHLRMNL
Sequence of Death-associated protein kinase 3 (Homo sapiens) (O43293 whole entry, looked up): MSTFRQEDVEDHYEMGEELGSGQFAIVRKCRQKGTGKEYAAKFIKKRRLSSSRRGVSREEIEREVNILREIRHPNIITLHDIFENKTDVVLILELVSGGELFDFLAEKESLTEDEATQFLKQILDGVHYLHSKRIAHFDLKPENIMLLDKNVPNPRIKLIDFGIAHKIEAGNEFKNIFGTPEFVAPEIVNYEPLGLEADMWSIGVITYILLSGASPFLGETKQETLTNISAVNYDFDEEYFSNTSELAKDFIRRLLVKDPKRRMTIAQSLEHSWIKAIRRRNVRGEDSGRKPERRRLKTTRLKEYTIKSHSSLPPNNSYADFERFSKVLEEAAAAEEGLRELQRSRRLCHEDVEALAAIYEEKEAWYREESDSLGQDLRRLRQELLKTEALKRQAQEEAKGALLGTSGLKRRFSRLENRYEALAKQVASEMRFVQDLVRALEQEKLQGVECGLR
Sequence of Serine/threonine-protein kinase pim-2 (Homo sapiens) (Q9P1W9 whole entry, looked up): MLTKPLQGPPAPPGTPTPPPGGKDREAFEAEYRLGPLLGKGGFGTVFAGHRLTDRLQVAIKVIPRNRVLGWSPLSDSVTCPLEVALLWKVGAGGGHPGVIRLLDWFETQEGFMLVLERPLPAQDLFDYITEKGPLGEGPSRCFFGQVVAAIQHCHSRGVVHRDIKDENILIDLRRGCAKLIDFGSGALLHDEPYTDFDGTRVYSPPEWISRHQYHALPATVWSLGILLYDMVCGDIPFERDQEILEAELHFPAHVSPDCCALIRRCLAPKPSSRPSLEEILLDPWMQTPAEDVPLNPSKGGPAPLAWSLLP

CN1CCN(c2cnc3c(C4CCN(C(=O)c5ccc(OC(F)(F)F)cc5N)CC4)ncnc3c2)CC1 [BAY-885]
inactive: residual activity [1] 100% | residual activity [2] 100% | residual activity [3] 91% | inhibition [4] 31.2% | inhibition [5] -3.41% | residual activity [6] 90% | residual activity [7] 100% | residual activity [8] 100% | residual activity [9] 100% | inhibition [10] 9.37% | residual activity [11] 100% | residual activity [12] 100% | residual activity [13] 100%

Cc1nc(C2CCN(C(=O)c3ccc(OC(F)(F)F)cc3N)CC2)c2ncc(N3CCN(C)CC3)cc2n1 [BAY-693]
inactive: residual activity [1] 100% | residual activity [2] 100% | residual activity [3] 100% | inhibition [4] 23.6% | inhibition [5] -6.02% | residual activity [6] 99% | residual activity [7] 100% | residual activity [8] 92% | residual activity [9] 100% | inhibition [10] 21.2% | residual activity [11] 100% | residual activity [12] 88% | residual activity [13] 100%
